The source made the active and inactive calls.
Assays:
Assay type in all cases: functional, cell-based
P388 = experiment: Cytotoxicity against mouse P388 cells
A549 = experiment: Cytotoxicity against human A549 cells
HT-29 = experiment: Cytotoxicity against human HT-29 cells
SK-MEL-28 = experiment: Cytotoxicity against human SK MEL28 cells

Measured: Activity

CC(=O)O[C@H]1CC/C(C)=C\[C@@H]2OC(=O)[C@H](C)[C@@]2(O)[C@@H](OC(C)=O)[C@H]2[C@]3(CC[C@H](OC(C)=O)[C@]12C)CO3
inactive: all assays above

C=C1[C@H](Cl)[C@@H]2OC(=O)[C@H](C)[C@]23O[C@@H]1[C@H](OC(C)=O)[C@H](OC(C)=O)[C@@]1(C)[C@@H](OC(C)=O)CC[C@]2(CO2)[C@@H]1[C@@H]3OC(C)=O
inactive: all assays above

C=C1CC[C@H](OC(C)=O)[C@@]2(C)[C@H]1[C@@H](OC(C)=O)[C@@]13O[C@](O)(C[C@H]2OC(C)=O)C(=C)C[C@@H]1OC(=O)[C@@H]3C
inactive: all assays above

CC(=O)O[C@H]1CC[C@]2(CO2)[C@@H]2[C@H](OC(C)=O)[C@@]3(O)[C@H](/C=C(/C)[C@H](OC(C)=O)C[C@H](OC(C)=O)[C@@]12C)OC(=O)[C@@H]3C
inactive: all assays above

C=C1CC[C@H](OC(C)=O)[C@]2(C)[C@@H](OC(C)=O)C[C@@H](OC(C)=O)/C(C)=C\[C@@H]3OC(=O)[C@H](C)[C@]3(O)[C@@H](OC(C)=O)[C@@H]12
inactive: all assays above

CC(=O)O[C@H]1CC[C@]2(CO2)[C@@H]2[C@H](OC(C)=O)[C@@]3(O)[C@H](/C=C(/C)[C@H](O)C[C@H](OC(C)=O)[C@@]12C)OC(=O)[C@@H]3C
inactive: all assays above

C=C1CC[C@H](OC(C)=O)[C@]2(C)[C@@H](OC(C)=O)C[C@@H](O)/C(C)=C\[C@@H]3OC(=O)[C@H](C)[C@]3(O)[C@@H](OC(C)=O)[C@@H]12
inactive: all assays above

C=C1[C@H]2C[C@@H](OC(C)=O)[C@@]3(C)[C@@H](OC(C)=O)CC[C@]4(CO4)[C@@H]3[C@@H](OC(C)=O)[C@]3(O2)[C@@H](C)C(=O)O[C@H]3[C@H]1Cl
inactive: all assays above

— ChEMBL document CHEMBL1158013, “Absolute structures of new briarane diterpenoids from junceella fragilis” (J Nat Prod, 1999)
